Data from patent publication US20220098646A1, “DETECTION METHOD OF PAN-RESISTANT K. PNEUMONIAE, SCREENING METHOD OF ANTIMICROBIAL AGENTS, AND RECORDING MEDIA AND DATABASE” (TEIKYO UNIVERSITY, priority 2019, published 2022).
Converted amounts (≈) assume the structure as drawn.

What was measured:
[1] = tested on: K. pneumoniae TK1401; assay: Antimicrobial susceptibility testing, MicroScan WalkAway apparatus; type: cell-based, Klebsiella pneumoniae; conditions: for MIC: Klebsiella pneumoniae, read-out: Minimum inhibitory concentration; for MIC / Minimum inhibitory concentration: K. pneumoniae isolate TK1401, MicroScan WalkAway, CLSI M100-S24 breakpoints
Procedure: (§1) Testing was performed using a MicroScan WalkAway apparatus (Beckman Coulter, Brea, Calif., USA). The minimal inhibitory concentration (MIC) of colistin was confirmed using the Etest (bioMérieux, Marcy l'Etoile, France) and the broth microdilution method. Antimicrobial susceptibility was defined according to breakpoints listed in the Clinical and Laboratory Standards Institute (CLSI) guidelines (M100-S24).

[2] = tested on: K. pneumoniae TK1401; assay: Antimicrobial susceptibility testing, broth microdilution method; type: cell-based, Klebsiella pneumoniae; conditions: for MIC: Klebsiella pneumoniae
Procedure: as §1

[3] = K. pneumoniae isolate TK1401, broth microdilution method (footnote b), read-out: Minimum inhibitory concentration
[4] = K. pneumoniae isolate TK1401, broth microdilution method (footnote b)

Compound	MIC [1]	other results
NCC[C@H](O)C(=O)N[C@@H]1C[C@H](N)[C@@H](O[C@H]2O[C@H](CN)[C@@H](O)[C@H](O)[C@H]2O)[C@H](O)[C@H]1O[C@H]1O[C@H](CO)[C@@H](O)[C@H](N)[C@H]1O [Amikacin]	> 32 µg/mL	
CC1(C)S[C@@H]2[C@H](NC(=O)[C@H](N)c3ccc(O)cc3)C(=O)N2[C@H]1C(=O)O [Amoxicillin]	> 16 µg/mL	
CC1(C)S[C@@H]2[C@H](NC(=O)[C@H](N)c3ccccc3)C(=O)N2[C@H]1C(=O)O [Ampicillin]	> 16 µg/mL	
NCC[C@H](O)C(=O)N[C@@H]1C[C@H](N)[C@@H](O[C@H]2O[C@H](CN)CC[C@H]2N)[C@H](O)[C@H]1O[C@H]1O[C@H](CO)[C@@H](O)[C@H](N)[C@H]1O [Arbekacin]		MIC [2, 3]: > 256 µg/mL
N[C@@H](C(=O)N[C@@H]1C(=O)N2C(C(=O)O)=C(Cl)CS[C@H]12)c1ccccc1 [Cefaclor]	> 16 µg/mL	
Cc1nnc(SCC2=C(C(=O)O)N3C(=O)[C@@H](NC(=O)Cn4cnnn4)[C@H]3SC2)s1 [Cefazolin]	> 16 µg/mL	
C=CC1=C(C(=O)O)N2C(=O)[C@@H](NC(=O)/C(=N\O)c3csc(N)n3)[C@H]2SC1 [Cefdinir]	> 2 µg/mL	
CO/N=C(\C(=O)N[C@@H]1C(=O)N2C(C(=O)[O-])=C(C[N+]3(C)CCCC3)CS[C@H]12)c1csc(N)n1 [Cefepime]	> 2 µg/mL	
CO[C@@]1(NC(=O)CSCC#N)C(=O)N2C(C(=O)O)=C(CSc3nnnn3C)CS[C@@H]21 [Cefmerazole]		Minimum inhibitory concentration [1]: >32 mg/L
CO/N=C(\C(=O)N[C@@H]1C(=O)N2C(C(=O)O)=C(COC(C)=O)CS[C@H]12)c1csc(N)n1 [Cefotaxim]		Minimum inhibitory concentration [1]: >2 mg/L
CN(C)CCn1nnnc1SCC1=C(C(=O)O)N2C(=O)[C@@H](NC(=O)Cc3csc(N)n3)[C@H]2SC1 [Cefotiam]	> 16 µg/mL	
CO/N=C(\C(=O)N[C@@H]1C(=O)N2C(C(=O)[O-])=C(C[n+]3ccn4ncccc43)CS[C@H]12)c1nsc(N)n1 [Cefozopran]	> 16 µg/mL	
COCC1=C(C(=O)O)N2C(=O)[C@@H](NC(=O)/C(=N\OC)c3csc(N)n3)[C@H]2SC1 [Cefpodoxime]	> 4 µg/mL	
CC(C)(O/N=C(\C(=O)N[C@@H]1C(=O)N2C(C(=O)[O-])=C(C[n+]3ccccc3)CS[C@H]12)c1csc(N)n1)C(=O)O [Ceftazidime]	> 16 µg/mL	
CO/N=C(\C(=O)N[C@@H]1C(=O)N2C(C(=O)O)=C(CSc3nc(=O)c(=O)[nH]n3C)CS[C@H]12)c1csc(N)n1 [Ceftriaxone]	> 16 µg/mL	
O=C(N[C@H](CO)[C@H](O)c1ccc([N+](=O)[O-])cc1)C(Cl)Cl [Chloramphenicol]		MIC [2, 3]: > 256 µg/mL
C[C@@H](O)[C@H]1C(=O)N2C(C(=O)O)=C(S[C@@H]3CN[C@H](CNS(N)(=O)=O)C3)[C@H](C)[C@H]12 [Doripenem]	> 8 µg/mL	
CO[C@@]1(NC(=O)CSC(F)F)C(=O)N2C(C(=O)O)=C(CSc3nnnn3CCO)CO[C@@H]21 [Flomoxef]	> 32 µg/mL	
C[C@@H]1O[C@@H]1P(=O)(O)O [Fosfomycin]		Antimicrobial susceptibility of the isolate (in words) ([1]; breakpoints of CLSI guidelines M100-S24): not susceptible; MIC [2, 3]: > 256 µg/mL
C[C@@H](O)[C@H]1C(=O)N2C(C(=O)O)=C(SCCN=CN)C[C@H]12 [Imipenem]	> 8 µg/mL	
C[C@H]1COc2c(N3CCN(C)CC3)c(F)cc3c(=O)c(C(=O)O)cn1c23 [Levofloxacin]	> 4 µg/mL	
C[C@@H](O)[C@H]1C(=O)N2C(C(=O)O)=C(S[C@@H]3CN[C@H](C(=O)N(C)C)C3)[C@H](C)[C@H]12 [Meropenem]	> 8 µg/mL	
CN(C)c1ccc(O)c2c1C[C@H]1C[C@H]3[C@H](N(C)C)C(O)=C(C(N)=O)C(=O)[C@@]3(O)C(O)=C1C2=O [Minocycline]		MIC [2, 3]: 256 µg/mL (≈ 560 µM)
CCN1CCN(C(=O)N[C@@H](C(=O)N[C@@H]2C(=O)N3[C@@H]2SC(C)(C)[C@@H]3C(=O)O)c2ccccc2)C(=O)C1=O [Piperacillin]	> 64 µg/mL	
CN(C)c1cc(NC(=O)CNC(C)(C)C)c(O)c2c1C[C@H]1C[C@H]3[C@H](N(C)C)C(O)=C(C(N)=O)C(=O)[C@@]3(O)C(O)=C1C2=O [Tigecycline]		MIC ([2]; TK1401, read-out: Minimum inhibitory concentration): 16 µg/mL (≈ 27.3 µM)
NC[C@H]1O[C@H](O[C@H]2[C@H](O)[C@@H](O[C@H]3O[C@H](CO)[C@@H](O)[C@H](N)[C@H]3O)[C@H](N)C[C@@H]2N)[C@H](N)C[C@@H]1O [Tobramycin]	> 8 µg/mL	
Colistin		Minimum inhibitory concentration [2, 4]: 64 mg/L
Gentamicin		Minimum inhibitory concentration [1]: >8 mg/L
Polymyxin B		Minimum inhibitory concentration [2, 4]: 64 mg/L
